Reference: KR20170082372A, “Sirt6의 활성 조절용 조성물” (한국화학연구원, priority 2016, dated 2017)

Target: T1, recombinant Sirt6 enzyme (Homo sapiens, UniProt Q8N6T7)
T1 construct: purchased Cyclex CY-1156
Experiment: CycLex Sirt6 deacetylase fluorometric assay (cat. CY-1156)
Format: biochemical
Conditions: 1 h, room temperature; for EC50: increase of Sirt6 deacetylase activity; for activity at 5 µM (stock): screening at 5uM, no test sample control = 100

T1 sequence (Q8N6T7 whole entry): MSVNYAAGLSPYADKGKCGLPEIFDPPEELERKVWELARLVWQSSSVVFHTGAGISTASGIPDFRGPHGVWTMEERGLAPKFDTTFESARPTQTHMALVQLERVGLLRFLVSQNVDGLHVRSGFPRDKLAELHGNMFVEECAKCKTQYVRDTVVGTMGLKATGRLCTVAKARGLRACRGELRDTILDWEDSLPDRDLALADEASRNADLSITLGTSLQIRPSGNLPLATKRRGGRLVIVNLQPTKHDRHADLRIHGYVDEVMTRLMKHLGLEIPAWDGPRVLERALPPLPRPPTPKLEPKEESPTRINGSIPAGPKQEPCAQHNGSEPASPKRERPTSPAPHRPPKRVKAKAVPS

| SMILES | EC50 [µM] | activity at 5 µM (stock) [%] |
| --- | --- | --- |
| NNc1nc2c(-c3cccc(C(F)(F)F)c3)nnn2c2ccccc12 [화학식 1, 5-hydrazinyl-3-(3-(trifluoromethyl)phenyl)-[1,2,3]triazolo[1,5-a]quinazoline] | 5 | ≥ 200 |
| COc1ccc(-c2nnn3c2nc(NC(C)c2ccccc2)c2ccccc23)cc1 (stereo not shown) [화학식 2, 3-(4-methoxyphenyl)-N-(1-phenylethyl)-[1,2,3]triazolo[1,5-a]quinazolin-5-amine] | 2.8 | ≥ 200 |
